According to patent US10314799B2 (priority 2015, dated 2019):
Like-named read-outs stand apart in the source and are kept apart here.

Assays:
PEDV [1] = settings: Virus Research (2013), 171(1), 44-53; cited from earlier work
epidemic diarrhea = settings: orally administered to diseased piglets, specific dose; cited from earlier work
[2] = test system: porcine epidemic diarrhea; test: Treatment of porcine epidemic diarrhea of newborn suckling piglets (piglets and lactating sows treated); type: in vivo, pigs; settings: diseased newborn suckling piglets; 100 g per sow per day, 0.2 g per piglet per day
Description: Treatment of the porcine epidemic diarrhea on newborn piglets with taurine was implemented by orally administering a taurine solution to diseased suckling piglets and administering taurine to lactating sows, that is, simultaneous treatment of both the suckling piglets and the lactating sows.
Drug administration time: the administration by drenching/mixed-feeding was carried out on the day when the disease occurred in the suckling piglets and a non-interrupted administration lasted for 3-10 days. Lactating sows: non-interrupted oral administration lasted for 5-10 days.
Drug administration dosage: the administration by drenching and/or mixed-feeding was carried out on the day when the disease occurred in the suckling piglets. The administration by drenching: 2% taurine solution at a dosage of 1-5 mL per time and it was taken 2-6 times per day. The administration by mixed-feeding: 1-20 g/L of taurine solution was drunk freely. Lactating sows: each sow was administered with 5-500 g of taurine per day and the administration was in a single dose or in divided doses.
Specific operations: 40 litters of diseased newborn suckling piglets and sows thereof were selected and randomly divided into two groups equivalently. Control group: conventional supportive therapy (fluid infusion+antibiotic therapy+atropine sulfate); experimental group: treatment with taurine.

[3] = test system: porcine epidemic diarrhea; test: Treatment of porcine epidemic diarrhea of weaned piglets, care pigs and finishing pigs; type: in vivo; settings: 300 mg per kilogram of body weight per day
Description: Treatment of the porcine epidemic diarrhea on the weaned piglets, the care pigs and the finishing pigs with taurine was implemented by orally administering taurine to the pigs, wherein the administration may be carried out by means of feeding in water or mixed feeding.
Drug administration time: the administration was carried out from the day of occurrence of the disease, and in consideration of the use-cost, the drug administration time is preferably 3-30 days, and more preferably 7-14 days. The effect is subject to an obvious time-effect relationship.
(§1) Drug administration dosage: 0.1-2% of taurine was added in the daily-drinking water for the pigs to drink freely; or 0.2-5% of taurine was added into the feed, which is equivalent to a dosage of 100-10000 mg per kilogram of body weight per day of taurine, and the administration was in a single dose or in divided doses. The effect is subject to an obvious quantity-effect relationship.
Specific operations: 60 diseased weaned piglets, 60 diseased care pigs and 60 diseased finishing pigs were selected, and were randomly divided into two groups equivalently. Control group: conventional supportive therapy (fluid infusion+antibiotic therapy+atropine sulfate); experimental group: treatment with taurine (the dosage of taurine was 300 mg per kilogram of body weight per day).

[4] = test system: porcine epidemic diarrhea; test: Prevention of porcine epidemic diarrhea of weaned piglets, care pigs and finishing pigs; type: in vivo; settings: 200 mg per kilogram of body weight per day
Description: Prevention of the porcine epidemic diarrhea on the weaned piglets, the care pigs and the finishing pigs with taurine was implemented by orally administering taurine to a swine herd, wherein the administration may be carried out by means of feeding in water or mixed feeding.
Drug administration time: a preventative administration was carried out during an epidemic period of the disease, or in autumn, winter and spring when the temperature was low and changed greatly, that is, in the season when the porcine epidemic diarrhea frequently occurs. Generally, the administration can be carried out for a long-term. In consideration of the use-cost, the drug administration time is preferably 3-30 days, and more preferably, 7-14 days. The effect is subject to an obvious time-effect relationship.
as §1, with “0.005-2%” for “0.1-2%”, “in” for “in the”, “0.01-5%” for “0.2-5%”, “50-10000” for “100-10000”
Specific operations: 120 healthy weaned piglets, 120 healthy care pigs and 120 healthy finishing pigs were selected and randomly divided into two groups equivalently. Control group: conventional feeding; experimental group: conventional feeding+taurine (the dosage of taurine was 200 mg per kilogram of body weight per day).

rotavirus diarrhea = test: Treatment of rotavirus diarrhea; type: in vivo, pigs
[5] = test system: porcine transmissible gastroenteritis; type: in vivo, pigs
[6] = test system: pseudorabies viral diarrhea; type: in vivo, pigs
PEDV [7] = test: Prevention of porcine epidemic diarrhea of newborn piglets by orally administering taurine to PEDV-carried pregnant sows; type: in vivo, pigs; settings: taurine 50 g per sow per day, oral
Text: Prevention of the porcine epidemic diarrhea on the newborn piglets with taurine was implemented by orally administering taurine to pregnant sows.
Drug administration time: 3-30 days before birth of piglets until 15 days after birth of piglets. In consideration of a use-cost, the drug administration time is preferably 5-20 days before birth of piglets until 10 days after birth of piglets, and more preferably 7-14 days before birth of piglets until 5 days after birth of piglets. The effect is subject to an obvious time-effect relationship. The drug administration time for before birth of piglets directly determines a disease incidence of the newborn piglets.
Drug administration dosage: each pregnant sow was administered with 5-500 g of taurine per day, and the administration was in a single dose or in divided doses. The effect is subject to an obvious quantity-effect relationship.
Specific operations: pregnant sows were selected and excrement thereof was tested by RT-PCR to determine the pregnant sows carrying PEDV in vivo. 60 PEDV-carried pregnant sows were divided into two groups randomly. Control group: conventional feeding; experimental group: conventional feeding+50 g per sow per day of taurine.

[8] = care pigs, dosage as in Embodiment 4
[9] = newborn piglets, dosage as in Embodiment 2
[10] = weaned piglets, dosage as in Embodiment 4
[11] = finishing pigs, dosage as in Embodiment 4

NC(=O)c1ncn([C@@H]2O[C@H](CO)[C@@H](O)[C@H]2O)n1 [Ribavirin]
inhibition of replication of PEDV (PEDV [1]): capable of inhibiting replication of PEDV

povidone iodine
improvement of survival rate (epidemic diarrhea): 5-10%

NCCS(=O)(=O)O [taurine, β-aminoethanesulfonic acid]
10-day-aged survival rate (%) [2]: 22.5% | Prognosis [2]: Good | Weaned survival rate [2]: 20.7 | Prognosis ([3]; diseased care pigs): Good | Survival rate (%) ([3]; diseased care pigs): 93.3% | Prognosis ([3]; diseased finishing pigs): Good | Survival rate (%) ([3]; diseased finishing pigs): 100% | Prognosis ([3]; diseased weaned piglets): Good | Survival rate (%) ([3]; diseased weaned piglets): 90.0% | Disease incidence (%) ([4]; care pigs): 3.3% | Prognosis ([4]; care pigs): Excellent | Survival rate (%) ([4]; care pigs): 96.6% | Disease incidence (%) ([4]; finishing pigs): 0% | Prognosis ([4]; finishing pigs): Excellent | Survival rate (%) ([4]; finishing pigs): 98.3% | Disease incidence (%) ([4]; weaned piglets): 6.6% | Prognosis ([4]; weaned piglets): Excellent | Survival rate (%) ([4]; weaned piglets): 96.6% | Prognosis (rotavirus diarrhea; [8]): Good | Survival rate (%) (rotavirus diarrhea; [8]): 96.6% | Prognosis (rotavirus diarrhea; [9]): Good | Survival rate (%) (rotavirus diarrhea; [9]): 93.6% | Prognosis (rotavirus diarrhea; [10]): Good | Survival rate (%) (rotavirus diarrhea; [10]): 96.6% | Prognosis [5, 8]: Good | Survival rate (%) [5, 8]: 93.3% | Prognosis [5, 11]: Good | Survival rate (%) [5, 11]: 96.6% | Prognosis [5, 9]: Good | Survival rate (%) [5, 9]: 16.6% | Prognosis [5, 10]: Good | Survival rate (%) [5, 10]: 90% | Prognosis [6, 8]: General | Survival rate (%) [6, 8]: 43.3% | Survival rate (%) [6, 9]: 0% | treatment effect on the pseudorabies viral diarrhea ([6]; summary of Table 5): no treatment effect | Death rate of the newborn piglets (%) (PEDV [7]): 75.1% | Disease incidence of the new born piglets (%) (PEDV [7]): 85%
